These results are taken from patent publication US10435399B2, “HDAC6 inhibitory heterocyclic compound” (TAKEDA PHARMACEUTICAL COMPANY LIMITED, priority 2017, dated 2019).

In one experiment the target is T1, HDAC6 enzyme (Homo sapiens, UniProt Q9UBN7).
T1 construct: transducing full length HDAC6 gene into Sf-9 insect cells; GST; purchased SignalChem; host or cells: Sf-9 insect cells
T1 sequence (Q9UBN7 1-1215): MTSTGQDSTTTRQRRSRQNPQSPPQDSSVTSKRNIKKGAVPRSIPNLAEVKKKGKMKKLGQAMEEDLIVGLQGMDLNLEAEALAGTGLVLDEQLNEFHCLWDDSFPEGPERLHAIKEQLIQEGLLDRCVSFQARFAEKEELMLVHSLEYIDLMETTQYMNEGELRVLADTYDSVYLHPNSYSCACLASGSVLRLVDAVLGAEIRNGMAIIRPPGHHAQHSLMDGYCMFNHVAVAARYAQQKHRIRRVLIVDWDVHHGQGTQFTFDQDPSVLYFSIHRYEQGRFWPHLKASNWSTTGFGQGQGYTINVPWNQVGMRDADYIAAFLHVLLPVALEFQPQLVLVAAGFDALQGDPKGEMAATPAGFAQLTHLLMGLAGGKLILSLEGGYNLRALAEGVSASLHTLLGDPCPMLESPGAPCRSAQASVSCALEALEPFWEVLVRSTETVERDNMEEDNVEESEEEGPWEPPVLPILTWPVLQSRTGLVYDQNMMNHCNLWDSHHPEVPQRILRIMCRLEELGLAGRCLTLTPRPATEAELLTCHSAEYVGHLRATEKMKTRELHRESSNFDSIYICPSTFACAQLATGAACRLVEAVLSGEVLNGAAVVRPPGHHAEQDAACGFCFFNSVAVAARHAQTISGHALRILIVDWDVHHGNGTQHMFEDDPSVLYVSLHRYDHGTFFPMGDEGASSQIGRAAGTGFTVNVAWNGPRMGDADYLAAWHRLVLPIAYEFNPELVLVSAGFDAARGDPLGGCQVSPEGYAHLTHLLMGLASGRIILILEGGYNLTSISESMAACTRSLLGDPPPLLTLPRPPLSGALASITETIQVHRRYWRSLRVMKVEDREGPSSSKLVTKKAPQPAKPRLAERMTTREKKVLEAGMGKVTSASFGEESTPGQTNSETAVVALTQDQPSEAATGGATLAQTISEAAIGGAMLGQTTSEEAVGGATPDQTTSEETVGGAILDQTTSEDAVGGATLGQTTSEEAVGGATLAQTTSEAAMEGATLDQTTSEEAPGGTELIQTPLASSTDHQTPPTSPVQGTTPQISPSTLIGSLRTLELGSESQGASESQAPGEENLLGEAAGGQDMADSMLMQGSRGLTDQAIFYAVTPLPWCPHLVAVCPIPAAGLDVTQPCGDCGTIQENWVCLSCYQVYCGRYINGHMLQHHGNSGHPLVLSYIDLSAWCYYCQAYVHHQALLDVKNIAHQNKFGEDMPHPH
Put plainly: HDAC6 enzyme inhibitory activity (HDAC-Glo I/II Assay kit). The following applies: 10 μM; wells without enzyme = 100% inhibition. It counts as biochemical. Put shortly: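 Sf-9-derived GST-purified full-length HDAC6 + cpd, 60 min RT, 24 mM Tris pH 7.5/0.6 mM glutathione/0.01% Tween-20; add HDAC-Glo substrate-developer, 20 min RT; luminescence. No-enzyme = 100% inhibition.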
In the case of `O=C1c2cc(-c3nnc(C(F)F)o3)cnc2CN1[C@@H]1COCC[C@H]1Oc1ccc(F)c(F)c1` [Example 649, 1,5-anhydro-2,4-dideoxy-2-(3-(5-(difluoromethyl)-1,3,4-oxadiazol-2-yl)-5-oxo-5,7-dihydro-6H-pyrrolo[3,4-b]pyridin-6-yl)-3-O-(3,4-difluorophenyl)-threo-pentitol (Optical Isomer)], the “HDAC6 inhibitory rate (%) (10 μM)” value is reported as 100%.
Consider `O=C1c2cc(-c3nnc(C(F)F)o3)cnc2CN1[C@@H]1COCC[C@H]1Oc1cc(F)cc(F)c1` [Example 651, 1,5-anhydro-2,4-dideoxy-2-(3-(5-(difluoromethyl)-1,3,4-oxadiazol-2-yl)-5-oxo-5,7-dihydro-6H-pyrrolo[3,4-b]pyridin-6-yl)-3-O-(3,5-difluorophenyl)-threo-pentitol (optical isomer)], for which the “HDAC6 inhibitory rate (%) (10 μM)” value is given as 100%.
The same measure, in the same setting: with `O=C1c2cc(-c3nnc(C(F)F)o3)cnc2CN1[C@@H]1COCC[C@H]1Oc1cccc(F)c1` [Example 653, 1,5-anhydro-2,4-dideoxy-2-(3-(5-(difluoromethyl)-1,3,4-oxadiazol-2-yl)-5-oxo-5,7-dihydro-6H-pyrrolo[3,4-b]pyridin-6-yl)-3-O-(3-fluorophenyl)-threo-pentitol (optical isomer)] the figure was 99%.

Staying with this experiment, now noted: 10 μM; wells without enzyme = 100% inhibition; read-out: HDAC6 inhibitory rate (%) (10 μM).
As to `CC(C)(C)OC(=O)N[C@@H]1CCC(F)(F)C[C@H]1N1Cc2ccc(-c3nnc(C(F)F)o3)cc2C1=O` [Example 634, tert-butyl ((1R,2R)-2-(6-(5-(difluoromethyl)-1,3,4-oxadiazol-2-yl)-1-oxo-1,3-dihydro-2H-isoindol-2-yl)-4,4-difluorocyclohexyl)carbamate], the inhibition at 10 µM was 99%.
For `O=C1c2cc(-c3nnc(C(F)F)o3)ccc2CN1[C@@H]1CC(F)(F)CC[C@H]1NC(=O)C(F)(F)C(F)(F)F` [Example 635, N-((1R,2R)-2-(6-(5-(difluoromethyl)-1,3,4-oxadiazol-2-yl)-1-oxo-1,3-dihydro-2H-isoindol-2-yl)-4,4-difluorocyclohexyl)-2,2,3,3,3-pentafluoropropanamide], the inhibition at 10 µM was 99%.
As to `O=C1c2cc(-c3nnc(C(F)F)o3)ccc2CN1[C@@H]1CC(F)(F)CC[C@H]1NC(=O)C(F)(F)C(F)F` [Example 636, N-((1R,2R)-2-(6-(5-(difluoromethyl)-1,3,4-oxadiazol-2-yl)-1-oxo-1,3-dihydro-2H-isoindol-2-yl)-4,4-difluorocyclohexyl)-2,2,3,3-tetrafluoropropanamide], the inhibition at 10 µM amounted to 100%.
For the compound `CC(F)(F)C(=O)N[C@@H]1CCC(F)(F)C[C@H]1N1Cc2ccc(-c3nnc(C(F)F)o3)cc2C1=O` [Example 637, N-((1R,2R)-2-(6-(5-(difluoromethyl)-1,3,4-oxadiazol-2-yl)-1-oxo-1,3-dihydro-2H-isoindol-2-yl)-4,4-difluorocyclohexyl)-2,2-difluoropropanamide], the inhibition at 10 µM is 100%.
For the compound `N[C@@H]1CCC(F)(F)C[C@H]1N1Cc2ncc(-c3nnc(C(F)F)o3)cc2C1=O` [Example 638, 6-((1R,2R)-2-amino-5,5-difluorocyclohexyl)-3-(5-(difluoromethyl)-1,3,4-oxadiazol-2-yl)-6,7-dihydro-5H-pyrrollo[3,4-b]pyridin-5-one], the inhibition at 10 µM was 93%.
The same measure, in the same setting: as for `CC(F)(F)C(=O)N[C@@H]1CC(F)(F)CC[C@H]1N1Cc2ncc(-c3nnc(C(F)F)o3)cc2C1=O` [Example 639, N-((1R,2R)-2-(3-(5-(difluoromethyl)-1,3,4-oxadiazol-2-yl)-5-oxo-5,7-dihydro-6H-pyrrolo[3,4-b]pyridin-6-yl)-5,5-difluorocyclohexyl)-2,2-difluoropropanamide], the figure is 100%; as for `O=C1c2cc(-c3nnc(C(F)F)o3)cnc2CN1[C@@H]1CCC(F)(F)C[C@H]1NC(=O)C(F)(F)C(F)(F)F` [Example 640, N-((1R,2R)-2-(3-(5-(difluoromethyl)-1,3,4-oxadiazol-2-yl)-5-oxo-5,7-dihydro-6H-pyrrolo[3,4-b]pyridin-6-yl)-5,5-difluorocyclohexyl)-2,2,3,3,3-pentafluoropropanamide], 100%.
As to `O=C1c2cc(-c3nnc(C(F)F)o3)cnc2CN1[C@@H]1CCC(F)(F)C[C@H]1NC(=O)C(F)(F)C(F)F` [Example 641, N-((1R,2R)-2-(3-(5-(difluoromethyl)-1,3,4-oxadiazol-2-yl)-5-oxo-5,7-dihydro-6H-pyrrolo[3,4-b]pyridin-6-yl)-5,5-difluorocyclohexyl)-2,2,3,3-tetrafluoropropanamide], the inhibition at 10 µM came out at 99%.
On to `O=C1c2cc(-c3nnc(C(F)F)o3)cnc2CN1[C@@H]1CC(F)(F)CC[C@H]1NC(=O)C(F)(F)C(F)(F)F` [Example 642, N-((1R,2R)-2-(3-(5-(difluoromethyl)-1,3,4-oxadiazol-2-yl)-5-oxo-5,7-dihydro-6H-pyrrolo[3,4-b]pyridin-6-yl)-4,4-difluorocyclohexyl)-2,2,3,3,3-pentafluoropropanamide], for which the inhibition at 10 µM came to 100%.
`CC(F)(F)C(=O)N[C@@H]1CCC(F)(F)C[C@H]1N1Cc2ncc(-c3nnc(C(F)F)o3)cc2C1=O` [Example 643]: the inhibition at 10 µM stood at 100%.
The same measure, in the same setting: as for `O=C1c2cc(-c3nnc(C(F)F)o3)cnc2CN1[C@@H]1CC(F)(F)CC[C@H]1NC(=O)C(F)(F)C(F)F` [Example 644, N-((1R,2R)-2-(3-(5-(difluoromethyl)-1,3,4-oxadiazol-2-yl)-5-oxo-5,7-dihydro-6H-pyrrolo[3,4-b]pyridin-6-yl)-4,4-difluorocyclohexyl)-2,2,3,3-tetrafluoropropanamide], the figure is 99%; as for `CCN(CC)C(=O)C1CC(F)(F)CCN1N1Cc2ccc(-c3nnc(C(F)F)o3)cc2C1=O` (centres unmarked) [Example 645, 1-(6-(5-(difluoromethyl)-1,3,4-oxadiazol-2-yl)-1-oxo-1,3-dihydro-2H-isoindol-2-yl)-N,N-diethyl-4,4-difluoropiperidine-2-carboxamide], 99%; as for `O=C1c2cc(-c3nnc(C(F)F)o3)cnc2CN1[C@@H]1COCC[C@H]1Oc1ccc(F)c(F)c1` [Example 646, 1,5-anhydro-2,4-dideoxy-2-(3-(5-(difluoromethyl)-1,3,4-oxadiazol-2-yl)-5-oxo-5,7-dihydro-6H-pyrrolo[3,4-b]pyridin-6-yl)-3-O-(3,4-difluorophenyl)-threo-pentitol], 99%.
`O=C1c2cc(-c3nnc(C(F)F)o3)cnc2CN1[C@@H]1COCC[C@H]1Oc1ccccc1F` [Example 647, 1,5-anhydro-2,4-dideoxy-2-(3-(5-(difluoromethyl)-1,3,4-oxadiazol-2-yl)-5-oxo-5,7-dihydro-6H-pyrrolo[3,4-b]pyridin-6-yl)-3-O-(2-fluorophenyl)-threo-pentitol (optical isomer)]: the inhibition at 10 µM came out at 100%.
For the compound `O=C1c2cc(-c3nnc(C(F)F)o3)cnc2CN1[C@@H]1COCC[C@H]1Oc1cc(F)cc(F)c1` [Example 650, 1,5-anhydro-2,4-dideoxy-2-(3-(5-(difluoromethyl)-1,3,4-oxadiazol-2-yl)-5-oxo-5,7-dihydro-6H-pyrrolo[3,4-b]pyridin-6-yl)-3-O-(3,5-difluorophenyl)-threo-pentitol (optical isomer)], the inhibition at 10 µM came to 99%.
As to `O=C1c2cc(-c3nnc(C(F)F)o3)cnc2CN1[C@@H]1COCC[C@H]1Oc1cccc(F)c1` [Example 652, 1,5-anhydro-2,4-dideoxy-2-(3-(5-(difluoromethyl)-1,3,4-oxadiazol-2-yl)-5-oxo-5,7-dihydro-6H-pyrrolo[3,4-b]pyridin-6-yl)-3-O-(3-fluorophenyl)-threo-pentitol (optical isomer)], the inhibition at 10 µM was determined as 100%.
Same read-out and setting: with `O=C1c2cc(-c3nnc(C(F)F)o3)cnc2CN1[C@@H]1COCC[C@H]1Oc1ccc(F)cc1F` [Example 655, 1,5-anhydro-2,4-dideoxy-2-(3-(5-(difluoromethyl)-1,3,4-oxadiazol-2-yl)-5-oxo-5,7-dihydro-6H-pyrrolo[3,4-b]pyridin-6-yl)-3-O-(2,4-difluorophenyl)-threo-pentitol] the figure was 96%.
